Assay results: US20220125807A1, “PHARMACEUTICAL COMBINATION OF WNT SIGNALING AND MACC1 INHIBITORS” (Max-Delbrück-Centrum für Molekulare Medizin in der …, priority 2019, published 2022)

Tests used:
HCT116 cells = assay: Wound healing (scratch) assay, IncuCyte, with Loewe synergy calculation; type: cell-based, human; details: HCT116, three concentrations (statin 5/2.5/1.25 μM, niclosamide 1/0.5/0.25 μM), 48 h, vs DMSO
Protocol: For wound healing assays the HCT116 human colon cancer cell line was used. HCT116 cells are endogenously positive for MACC1 and S100A4 expression at the mRNA and protein level. In addition, they show decreased motility when either marker is inhibited. For wound healing (scratch) experiments cells were passaged to a density of 6×10^5 per ml and cultured for 48 h. Cells were then harvested and counted. For wound healing assays 1.2×10^5 cells were seeded in 100 μl RPMI supplemented with 10% FCS in 96 well Image Lock Plates (Essen Bioscience, Hertfordshire, UK). Cells were allowed to adhere for 6 hours. Wounds in the monolayer were applied using the IncuCyte WoundMaker (Essen Bioscience). After applying the wounds 100 μl of 2-fold concentrated drug solutions were added. DMSO treated and untreated samples served as controls. For each drug three different (niclosamide 1 μM, 0.5 μM and 0.25 μM, each statin 5 μM, 2.5 μM and 1.25 μM, MEK1 inhibitors 1 μM, 0.1 μM and 0.01 μM) concentrations and combinations thereof were applied, each in triplicate. Of all statins, we tested lovastatin, fluvastatin and atorvastatin. Wound closure was monitored every second hour in the IncuCyte system (Essen Bioscience). A pre-established image collection of HCT116 was used to teach the software detection of cells and wound. Wound confluency was expressed relative to DMSO treated controls. Synergy was analyzed using combenefit 2.021. DMSO treated samples were set to 100%. To calculate synergy, we used the Loewe isobole equation model. For the calculations dose-response curves for three single concentrations and the nine combinations thereof were used. The Loewe model was applied since there is a certain degree of target interaction already shown: first, active Wnt-signaling is important for MACC1 driving tumor progression and invasiveness (Lemos C, Clin Cancer Res, 2016) and second, S100A4 is a Wnt-signaling target gene and is found in the MACC1 induced secretome. The three single concentrations and nine combinations thereof were expressed relative to the control.

MACC1 [1] = assay: MACC1 mRNA expression by qRT-PCR in statin-treated HCT116 cells; type: cell-based, human; details: 1-10 μM statin, 24 h, relative to DMSO treated control
Protocol: (§1) HCT116 cells were treated with increasing amounts (1-10 μM) of different, clinically relevant statins dissolved in DMSO. Following 24 h of treatment cells were harvested for RNA and protein isolation. MACC1 mRNA expression was analyzed by qRT-PCR and is expressed relative to DMSO treated control samples. Protein amounts were analyzed by western blot.
(§2) HCT116, SW620 and SW480 colorectal carcinoma cells were purchased from ATCC. HCT116 cells were stably transduced with GFP/ MACC1-GFP plasmids to produce MACC1 overexpressing cell lines and SW620 cells were stably transduced by sh-control/sh-MACC1 plasmids to produce MACC1 knockdown cell lines. SW480 stable MACC1 overexpressing cell lines were created using pCDNA3.1 MACC1 plasmids and the control cells were produced using pCDNA3.1 empty plasmids followed clone selection using Gentamycin (Gibco). Knock-out of MACC1 in SW620 cells was achieved by CRISPR-Cas9 based gene editing followed by Puromycin (Gibco) based selection and subsequently the clones were picked using single cell sorting. Cells were cultured in RPMI supplemented with 10% FCS in 5% CO2 humidified atmosphere and sub passaged 2-3 times a week to maintain cultures subconfluent. Drugs were solubilized in DMSO, stock concentrations were 2 mM for niclosamide (Sigma-Aldrich, St Louis, Mo., USA), 2 mM for GSK1120212 (trametinib, Selleck Chemicals, Munich, Germany) and selumetinib (AZD6244, Selleck Chemicals, Munich, Germany) and 10 mM for statins (atorvastatin, lovastatin, fluvastatin, TCI Deutschland GmbH, Eschborn, Germany). All drugs were pre-diluted to 1000× final concentration in DMSO. Control cells were treated with equal amounts of DMSO.
RNA was isolated using the Gene Matrix Universal RNA Purification Kit (EURx, Poland) according to the manufacturer's instructions. RNA was quantified and 50 ng of RNA was reverse transcribed using a reaction mix containing MuLV reverse transcriptase, 10 mM MgCl2, 1× PCR-Buffer, 250 μM pooled dNTPs, 1U RNAse inhibitor and random hexamers (all from Applied Biosystems). The reaction was performed at 42° C. for 15 min, 99° C. for 5 min and subsequent cooling at 4° C. for 5 min. The cDNA was amplified using SYBR Green chemistry (Promega) using the LightCycler 480 II system (Roche Diagnostics) at the following PCR conditions: 95° C. for 2 min followed by 45 cycles of 95° C. for 7 s, 60° C. for 10 s and 72° C. for 20 s. The primers used for quantification are as follows: MACC1 Fwd 5′-[…]-3′ and Rev 5′-[…]-3′; S100A4 Fwd 5′-[…]-3′ and Rev 5′- […]-3′. Data analysis was performed with LightCycler 480 Software release 1.5.0 SP3 (Roche Diagnostics). Mean values was calculated from RT-qPCR duplicates. Each mean value of the expressed gene was normalized to the respective RP-II cDNA. […]

MACC1 [2] = assay: MACC1 protein by western blot in statin-treated HCT116 cells; type: cell-based, human; details: 1-10 μM statin, 24 h
Protocol: as §1, §2
Whole cell protein extraction was performed on 5×10^5 HCT116 and SW620 cells. Cells were lysed using RIPA buffer (50 mM Tris-HCT pH 7.5, 150 mM NaCl, 1% Nonidet P-40) supplemented with cOmplete Protease inhibitor (Roche) for 30 min at 4° C. The lysate was clarified and the protein content was measured using the BCA Kit (Pierce). 20 μg protein lysate were denatured with LDS-containing NuPage Loading buffer (invitrogen) and DTT for 10 min.
Proteins were then resolved in 10% SDS-PAGE followed by protein transfer onto PVDF membranes (BioRAD). The membrane was blocked with 5% w/v skim milk powder and 1% w/v BSA in TBST (10 mM Tris-HCL pH 8, 150 mM NaCl and 0.1% Tween 20) for 60 min. The membrane was incubated overnight with the respective primary antibodies (anti-MACC1, #HPA020081, Sigma Aldrich; S100A4, #5114, Dako and β-Actin, #31430, Invitrogen; Lamin B1, #12586s, Cell Signalling). The membranes were washed and further incubated with corresponding horseradish peroxidase-tagged secondary antibodies (anti-mouse IgG HRP-conjugated, #31430, Invitrogen and anti-rabbit IgG HRP-conjugated, #W4018, Promega) for 60 min. […]

HCT116-CMVp-Luc cells = assay: Xenograft mouse model of liver metastasis, intrasplenic transplantation, bioluminescence imaging; type: in vivo, SCID-beige mice; details: daily p.o., alone or combined, vs solvent; for Metastasis formation to the liver (luminescence), reduced dose: statin 1.5 mg/kg, niclosamide 164 mg/kg; for Metastasis formation to the liver (luminescence), maximum human dose equivalent: statin 13 mg/kg, niclosamide 328 mg/kg
Protocol: Severe combined immunodeficiency (SCID)-beige mice (n=10 per group) were intrasplenically transplanted with HCT116-CMVp-Luc cells and treated daily with solvent, 13 mg/kg atorvastatin or fluvastatin (p.o.), 328 mg/kg niclosamide (p.o.) or the combination of niclosamide with one of the statins, at the indicated doses. These doses correspond to the maximum human doses established for the statins and niclosamide. Metastasis to the liver was analyzed with bioluminescence imaging after an intraperitoneal application of 150 mg/kg D-Luciferin at the experimental endpoint. Following whole animal imaging livers were removed and analyzed as isolated organs.
Severe combined immunodeficiency (SCID)-beige mice (n=10 per group) were intrasplenically transplanted with HCT116-CMVp-Luc cells and treated daily with solvent, 1.5 mg/kg atorvastatin or fluvastatin (p.o.), 164 mg/kg niclosamide (p.o.) or the combination of niclosamide with one of the statins, at the indicated doses. These doses therefore correspond to 12.5% of the maximum human dose for the statins and 50% of the maximum human dose for niclosamide. Metastasis to the liver was analyzed with bioluminescence imaging after an intraperitoneal application of 150 mg/kg D-Luciferin at the experimental endpoint. Following whole animal imaging livers were removed and analyzed as isolated organs.
All experiments were performed in accordance with the United Kingdom Coordinated Committee on Cancer Research (UKCCCR) guidelines and approved by the responsible local authorities (State Office of Health and Social Affairs, Berlin, Germany). For in vivo drug testing a xenograft mouse model was used as described earlier (Stein 2009 Nat Med, Sack 2011 J Natl Cancer Inst,
Juneja & Kobelt 2017 Plos Biol). In brief, HCT116-CMVp-LUC cells (5×10^5 cells per mouse, resuspended in 50 μL PBS) were intrasplenically transplanted into 6-week-old female SCID beige (SCID bg/bg) mice. The animals were assigned randomly into treatment groups.
Drugs were administered as a suspension using a gavage tube. Both niclosamide (either 328 mg/kg or 164 mg/kg) and a statin (atorvastatin or fluvastatin, at 13 mg/kg or 1.5 mg/kg) were administered daily, orally. Control mice were treated with the appropriate volume of solvent solution. The in vivo experimentation and luminescence imaging were conducted as described below.
For luminescence imaging, mice were anesthetized with 5% Isoflurane and received intraperitoneally 150 mg/kg D-luciferin (Biosynth, Staad, Switzerland) dissolved in sterile PBS. Anesthesia was maintained with 2% isoflurane. Imaging was performed with the NightOWL LB 981 system (Berthold Technologies, Bad Wildbad, Germany). ImageJ version 1.48v (NIH, Bethesda, Md.) was used for color coding of signal intensity (presenting a 256 grayscale) and overlay pictures.

SMILES	Wound closure (cellular motility), single agents (HCT116 cells)	MACC1 mRNA expression (MACC1 [1])	MACC1 protein (MACC1 [2])	Metastasis formation to the liver (luminescence), reduced dose (HCT116-CMVp-Luc cells)	Metastasis formation to the liver (luminescence), maximum human dose equivalent (HCT116-CMVp-Luc cells)
CC[C@H](C)C(=O)O[C@H]1C[C@@H](C)C=C2C=C[C@H](C)[C@H](CC[C@@H]3C[C@@H](O)CC(=O)O3)[C@H]21 [lovastatin]	dose dependent reduction of wound closure ability	shown to reduce	shown to reduce	–	–
CC(C)c1c(C(=O)Nc2ccccc2)c(-c2ccccc2)c(-c2ccc(F)cc2)n1CC[C@@H](O)C[C@@H](O)CC(=O)O [atorvastatin]	dose dependent reduction of wound closure ability	shown to reduce	shown to reduce	no reduction in metastasis formation	significantly reduced
O=C(O)C[C@H](O)C[C@H](O)/C=C/c1c(C2CC2)nc2ccccc2c1-c1ccc(F)cc1 [Pitavastatin]	–	shown to reduce	shown to reduce	–	–
O=C(Nc1ccc([N+](=O)[O-])cc1Cl)c1cc(Cl)ccc1O [niclosamide, 5-Chloro-N-(2-chloro-4-nitrophenyl)-2-hydroxybenzamide]	dose dependent reduction of wound closure ability	–	–	no reduction in metastasis formation	significantly reduced
CC(C)n1c(/C=C/[C@H](O)C[C@H](O)CC(=O)O)c(-c2ccc(F)cc2)c2ccccc21 (racemic) [fluvastatin]	dose dependent reduction of wound closure ability	shown to reduce	shown to reduce	no reduction in metastasis formation	significantly reduced
